We go through one compound from PMC9629705, “Canonical strigolactones are not the major determinant of tillering but important rhizospheric signals in rice” (Science Advances, 2022).

As usually defined, the IC50 is the concentration that inhibits the measured activity by half.

In one assay the target is T1, OsMAX1-1400 (Oryza sativa, UniProt W5QV10).
T1 construct: gene Os01g0701400
T1 sequence (W5QV10 1-541): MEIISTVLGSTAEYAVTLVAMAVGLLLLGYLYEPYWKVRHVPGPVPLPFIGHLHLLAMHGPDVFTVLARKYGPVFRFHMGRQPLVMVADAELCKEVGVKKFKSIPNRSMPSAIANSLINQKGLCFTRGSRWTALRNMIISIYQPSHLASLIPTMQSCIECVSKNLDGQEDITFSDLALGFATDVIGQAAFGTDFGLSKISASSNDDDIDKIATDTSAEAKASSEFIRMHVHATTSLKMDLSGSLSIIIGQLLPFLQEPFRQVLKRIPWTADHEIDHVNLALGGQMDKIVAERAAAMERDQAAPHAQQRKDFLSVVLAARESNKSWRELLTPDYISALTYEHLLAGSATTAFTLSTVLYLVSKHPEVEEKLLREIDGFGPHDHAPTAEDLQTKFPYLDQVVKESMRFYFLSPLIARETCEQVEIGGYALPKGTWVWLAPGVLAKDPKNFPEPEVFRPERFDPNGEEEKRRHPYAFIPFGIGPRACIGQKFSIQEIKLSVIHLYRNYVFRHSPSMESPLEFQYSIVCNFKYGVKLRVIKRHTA
Briefly: LC-MS/MS enzyme assay (4DO to orobanchol) with microsomes of yeast overexpressing the enzyme. Format: biochemical.

The target in the next assay is T2, OsMAX1-900 (Oryza sativa, UniProt M9R6D3).
T2 construct: gene Os01g0700900
T2 sequence (M9R6D3 1-539): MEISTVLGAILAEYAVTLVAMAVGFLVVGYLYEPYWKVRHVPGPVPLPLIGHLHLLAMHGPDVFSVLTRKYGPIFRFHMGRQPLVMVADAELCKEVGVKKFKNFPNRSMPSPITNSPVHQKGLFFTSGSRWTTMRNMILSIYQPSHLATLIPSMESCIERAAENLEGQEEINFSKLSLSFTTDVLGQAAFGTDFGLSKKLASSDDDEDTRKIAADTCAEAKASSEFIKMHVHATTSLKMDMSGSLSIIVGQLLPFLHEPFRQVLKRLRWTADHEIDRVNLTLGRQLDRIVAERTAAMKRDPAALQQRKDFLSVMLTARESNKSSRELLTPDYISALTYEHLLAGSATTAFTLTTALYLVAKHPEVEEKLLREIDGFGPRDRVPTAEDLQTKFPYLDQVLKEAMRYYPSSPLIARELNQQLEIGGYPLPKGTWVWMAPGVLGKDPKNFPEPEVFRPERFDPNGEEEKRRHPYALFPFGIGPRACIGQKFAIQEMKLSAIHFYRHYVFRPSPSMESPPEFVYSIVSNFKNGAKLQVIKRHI
Briefly: LC-MS/MS enzyme assay (CL to CLA, CLA to 4DO) with microsomes of yeast overexpressing the enzyme. Format: biochemical.

Regarding `O=C(c1ccccc1)C(CCCCOc1ccccc1)n1cncn1` (centres unmarked) [TIS108], the IC50 at OsMAX1-1400 worked out at 20 nM; against OsMAX1-900, 150 nM.
